In one experiment the test system is uterine RNA. Nature of the experiment: Uterine RNA concentration. The settings on record: treatment group; absorbance at 260 nm; P < 0.01 vs control. The experiment is classed as in vivo. The procedure: Uterine samples (100 mg) were digested in a 4 M guanidium thiocyanate solution, to which was added 50 μl of 2 M sodium acetate (pH 4.0), 500 μl phenol, and finally 200 μl chloroform/isoamyl alcohol (24:1, v/v) sequentially, with mixing after each addition. The RNA from the resultant solution was pelleted by mixing with 1 vol. isopropanol and incubating at −20° C. for 2 h and spun at 12000×g for 12 min, then resuspended in 0.5% sodium dodecyl sulfate (SDS). The RNA suspension was incubated for 10 min at 65° C. and stored at −20° C. until use. RNA concentration was determined by absorbance intensity at 260 nm.

The test system of a further experiment is lymphocytes. Nature of the experiment: Lymphoblastoid transformation test (3H-TdR liquid scintillation). The experiment is classed as in vivo, mice. As to conditions: treatment group, P < 0.01 vs control. Here is the method: By means of ^3H-TdR liquid scintillation assay technique, the action of LIG on lymphoblastoid transformation was investigated method:
(1) Experimental procedure of animal is the same as in Example 2.
(2) Lemphoblastoid transformation test:
a. Culture media—RPMI 1640, medium 199 minimal essential medium (Eagle).
b. Buffer—Hepes buffer, the final concentration at 37° C. was 25 mM, to maintain the pH of the medium at 7.31.
c. Serum—generally 15-205 fetal bovine serum was incorporated, for lymphocytes from mice, 5% was used.
d. Gaseous phase—5% CO2 in air.
e. Cell concentration—generally 1-2×10^6/ml.
f. Stimulants—20 μl/ml for phytohemagglutinin containing polysaccharide (PHA-M) or 10 μl/ml for polysaccharide-free purified phytohemagglutinin (PHA-P).
a. The conditions of cell culture are same as above. ^3H-TdR was added after 48 hours of incubation at a final concentration of 1 μCi/ml and continued the incubation for 24 hours.
b. Washed the cells twice with cold normal saline and the erythrocytes were lysed. The intact lymphocytes were again washed once with cold saline. Spun down the lymphocytes and added 2 ml of 10% trichloroacetic acid to precipitate the protein. Washed twice with normal saline. Added 2 ml of ethanol:ether (1:1) to wash once. […]
c. Added 4 ml of scintillation fluid to 0.1 ml of the final sample and counted in a liquid scintillation counter.

Another experiment has as its system hemopoietic system. Nature of the experiment: Recovery of hemopoiesis in mice treated by cyclophosphamide. The format is in vivo. From the text:
Effects of LIG on hemopoietic system were investigated. […] With increased cells in bone-marrow (BMC), endogenous colonies in spleen and higher ^3H-TdR uptake in marrow and spleen. The level of serum colony stimulating factor (CSF) increased after injection.

Experiment [1] relates to bone marrow stem cells (CFU-S). Nature of the experiment: Spleen colony assay, bone marrow stem cells (CFU-S). The format is in vivo. As to conditions: treatment group, mice treated by cyclophosphamide; P < 0.01 vs control. The source says:
Effects of LIG on hemopoietic system were investigated. […] With increased cells in bone-marrow (BMC), endogenous colonies in spleen and higher ^3H-TdR uptake in marrow and spleen. The level of serum colony stimulating factor (CSF) increased after injection. […] Pharmacological effects as illustrated by the following table: by means of the spleen colony assay technique the action of LIG on bone marrow stem cells (CFU-S)

In another experiment the test system is uterine peroxidase. Nature of the experiment: Uterine peroxidase activity (gene product of uterine) in cycloheximide-injured rats. The format is in vivo, Sprague-Dawley rats. As to conditions: treatment group: cycloheximide + LIG, intraperitoneal injection, female rats; P < 0.001 vs control. Here is the method: It is known that peroxidase induction is a useful market for estrogen-effected growth responses in uterine. The uterine peroxidase is a useful gene product for assessing effect of hormones on uterine. […] Female Sprague-Dawley rats at 20 days of age, allowed free access to food and water. Castrate rats were the same strain. Rats of normal group were administered in saline solution by intraperitoneal injection. Rats of control group were injected cycloheximide. Rats of treatment group injected cycloherimide+LIG. At the indicated times the rats were sacrificed by decapitation. The entire uterus from oviduct to cervix was removed, quickly dissected free of fat and connective tissue, blotted on hard filter paper, and weighed. Each uterus was minced with a scissors into a 12-ml polycarbonate tube and homogenized, 10 sec with ice cooling in 10 mM Tris.HCl, pH 7.2, buffer (25 mg of tissue per ml unless otherwise stated), with homogenizer. The homogenates were centrifuged for 45 min at 39,000×g at 2°. The hypotonic supernatant fraction contains no peroxidase activity. […] The reaction was started by the addition of enzyme (extract), and initial rates of guaiacol oxidation were determined from the increase in absorbance at 470 nm for the first minutes.

In another experiment the test system is white blood cells. Nature of the experiment: White blood cells in rats treated by cyclophosphamide. The settings on record: LIG + cyclophosphamide, 10 days treatment, P < 0.01 vs control. The experiment is classed as in vivo. The source says:
Action of LIG and cyclophosphamide on white blood cells was investigated by means of white blood cells assay. […] Method of testing in animal is standard. The dosage of LIG and cyclophosphamide is the same as in above examples. Time of treatment is 10 days.

Another experiment deals with interleukin-2 (rIL-2). Nature of the experiment: Interleukin-2 (rIL-2) determination. As to conditions: treatment group. From the text: The methods of determination rIL-2 were regular.
In another experiment the test system is human blood lymphocytes. Nature of the experiment: Immune function of human blood lymphocytes (3H-TdR incorporation). The format is cell-based. As to conditions: LIG added to culture medium of lymphocytes from old volunteers (60-70 years). The procedure: Twenty (20) old volunteers (60-70 years of age) and 10 healthy young persons participated in the experiment. 2 ml of venous blood, heparinized was obtained from each of the participants. The Study of the effects of LIG was carried out by using Eagle's Minimal Essential Medium MEM). MEM was supplemented with 0.125 ml of heat-inactivated fetal calf serum, 100 units of Penicillin and 0.1 mg of streptomycin per ml of medium. Culture medium was divided into treated (LIG) and control group. LIG was added to the culture medium of treatment group. The culture medium of control group was mixed with same volume as that of LIG of normal saline on the 72 hours of culture. The ^3H-thymidine (^3H-TdR) was added into all the cultures (2 μci/ml) for last 12 hours of culture. The cells were harvested on 0.45 μm filters, washed with phosphate buffer (ph 7.4) and bleached with H2O2. The filters were then dried and the incorporation of ^3H-TdR into lymphocytes cell was measured by scintillation counter.

The next experiment relates to uterine tissues. Nature of the experiment: DNA synthesis of uterine (3H-TdR) in cycloheximide-injured rats. The experiment is classed as in vivo, Sprague-Dawley rats. As to conditions: treatment group: cycloheximide + LIG, female rats. Here is the method: Female Sprague-Dawley rats at 20 days of age, allowed free access to food and water and, as immature rats, used by age 23 days. Castrate rats were the same strain. Rats of normal group were administered in saline solution by intraperitoneal injection. Rats of control group were injected cycloheximide. Rats of treatment group injected cycloherimide+LIG. At the indicated times the rats were sacrificed by decapitation. The entire uterus from oviduct to cervix was removed, quickly dissected free of fat and connective tissue, blotted on hard filter paper, and weighed. Each uterus was minced with a scissors into a 12-ml polycarbonate tube and homogenized, 10 sec with ice cooling in 10 mM Tris.HCl, pH 7.2, buffer (10 mg of tissue per ml unless otherwise stated), with homogenizer. Aliquets used for DNA analysis. Determination of DNA is used methods of ^3H-TdR.

For a further experiment, the system named is peritoneal macrophages. Nature of the experiment: Phagocytosis of peritoneal macrophage of mice. The format is in vivo. As to conditions: LIG 5.5 mg/kg intraperitoneally daily for 5 days, cyclophosphamide 4.5 mg/kg; macrophages with phagocytized chick red blood cells per 100 macrophages; P < 0.01 vs control. The procedure: Male mice weight 18-20 g were used in the experiments and were divided into treated (LIG) and control groups. The dosage of LIG was 5.5 mg/kg injected intraperitoneally. The control mice were injected with same volume of normal saline. These injections were repeated daily for 5 days, both treated and control group were injected intraperitoneally with cyclosphosphamide. The dosage of cyclophosphamide is 4.5 mg/kg. The same experimental procedure for example 3, 4 and 5 in testing mice were used. Added 0.02 ml of 5% washed chick red blood cell suspension to 0.5 ml of the peritoneal exudates. Shook gently to mix and incubate at 37° C. for 5 minutes. Dipped two cover slips, closed to each other, in the above mixture and incubated for 30 minutes for the migration of the macrophages along the cover slips, fixed and stained with Sharma stain. Examined microscopically for: Phagocytic rate—number of macrophages with phagocytized chick red blood cells per 100 macrophages counted. Method of animal model is regular.

The mark [2] stands for this setting: mice treated by cyclophosphamide.

The molecule `CCC/C=C1\OC(=O)C2=C1CCC=C2` [LIG, ligustilide] gave an RNA units in the experiment on uterine RNA of 0.92 ± 0.12. Further, the “Lymphoblastoid transformation CPM ± SD” value in the experiment on lymphocytes is 1650 ± 270 CPM. In addition, the “Level of serum colony stimulating factor (CSF)” value in the experiment on hemopoietic system (after injection) was “increased”. Moreover, in the experiment on hemopoietic system (setting [2]), the “3H-TdR uptake in marrow and spleen” value is “higher”; the “Cells in bone-marrow (BMC)” value is given as “increased”; the “Recovery rate of hemopoieses” value is “markedly improve”. In experiment [1], the “Mean (CFU-S ± SD)” value was 28.5 ± 3.5. In the experiment with uterine peroxidase, the Peroxidase activity amounted to 7.6 ± 0.8 Enzyme units/10 mg uterus. For the same molecule, the White blood cells in the experiment on white blood cells is 13.8 ± 2.0 × 10^3/cm^3. The molecule further registered an IL-2 in the experiment on interleukin-2 (rIL-2) of 75.6 ± 8.9 U/ml. Moreover, the “3H-TdR incorporation into lymphocytes, CPM” value in the experiment on human blood lymphocytes was 2180 ± 360 CPM. Also, the DNA synthesis in the experiment on uterine tissues worked out at 1052 ± 110 CPM/10 g uterine tissues. Besides, the “Phagocytic (rate ± SD)” value with peritoneal macrophages came to 26.8 ± 3.1.

The record behind these values is patent publication US20030165580A1, “Safe pharmaceutical composition for treatment and prevention of gynecological disease” (priority 2002, published 2003).
